The source of these data is PMC6260965 (Structure (London, England : 1993), 2018).

Read-outs that look alike come from different tables or passages of the source.

Experiment [1] addresses NS3/4A protease D168A (Hepatitis C virus genotype 1a, UniProt P27958, D1194A). As to the kind of experiment: biochemical. In kind it is biochemical, HCV.
Experiment [2] concerns NS3/4A protease Y56H/D168A. As to the kind of experiment: Enzyme inhibition assay, Y56H/D168A protease. It counts as biochemical, HCV. Particulars: for loss in potency in enzyme inhibition assays: Y56H/D168A relative to WT protease.
The target in experiment [3] is NS3/4A protease Y56H (Hepatitis C virus genotype 1a, UniProt P27958, Y1082H). As to the kind of experiment: Enzyme inhibition assay, Y56H protease. In kind it is biochemical, HCV.
Experiment [4] concerns NS3/4A protease D168A. As to the kind of experiment: biochemical. In kind it is biochemical, HCV. The following applies: D168A relative to WT protease.
Experiment [5] addresses NS3/4A protease Y56H/D168A (Hepatitis C virus genotype 1a, UniProt P27958, D1194A/Y1082H). Kind of experiment: Enzyme inhibition assay, Y56H/D168A protease. It counts as biochemical, HCV.
The test system of experiment [6] is NS3/4A protease Y56H/D168A versus sum of Y56H and D168A. As to the kind of experiment: Double mutant cycle analysis from inhibition constants. The following applies: calculated from measured Ki; negative coupling.
The test system of experiment [7] is GT3 double substitution variant Y56H/Q168R. The following applies: GT3 Y56H/Q168R selected in vitro; ref Ng et al., 2017; cited from earlier work.
Experiment [8] concerns HCV Con1 (genotype 1b) reporter replicon, H77 NS3 protease region with D168A. As to the kind of experiment: Cell-based drug susceptibility. The following applies: D168A compared to WT.
Experiment [9] concerns HCV Con1 (genotype 1b) reporter replicon, H77 NS3 protease region with Y56H/D168A. Kind of experiment: Cell-based drug susceptibility. The following applies: Y56H/D168A compared to WT.

One may read the Ki as a measure of affinity in units of concentration, obtained from inhibition or displacement. For the compound `CCc1nc2ccc(OC)cc2nc1O[C@@H]1C[C@H]2C(=O)N[C@]3(C(=O)NS(=O)(=O)C4CC4)C[C@H]3/C=C\CCCCC[C@H](NC(=O)OC(C)(C)C)C(=O)N2C1` [5172-mcP1P3], the inhibition constant Ki in experiment [1] (read-out: inhibition constant (Ki), D168A variant) is 82.4 nM. Besides, the “loss in potency in enzyme inhibition assays” value in [2] was 200–400 fold.
For `CC(C)(C)OC(=O)N[C@H]1CCCCC/C=C\[C@@H]2C[C@@]2(C(=O)NS(=O)(=O)C2CC2)NC(=O)[C@@H]2C[C@@H](OC(=O)N3Cc4cccc(F)c4C3)CN2C1=O` [danoprevir], the Ki in [3] stood at 3 nM; in experiment [1] it was 199 nM; in experiment [5], 520 nM. Moreover, in experiment [4], the “potency loss in enzyme inhibition assays” value was determined as 200 fold. In addition, the “additional reduction in potency with Y56H” value in [2] (Y56H/D168A relative to D168A, enzyme inhibition) was found to be 2.5 fold. Also, in experiment [2], the “loss in potency in enzyme inhibition assays” value came to 500 fold. For the same compound, in [6], the “difference in ΔΔG for the double mutant compared to sum of the single mutants” value (from here on “difference in ΔΔG for the double mutant”) was ~ 0.06 kcal/mol.
With `CC(C)(C)[C@@H]1NC(=O)O[C@@H]2CCC[C@H]2OC/C=C/C(F)(F)c2nc3ccccc3nc2O[C@@H]2C[C@@H](C(=O)N[C@]3(C(=O)NS(=O)(=O)C4(C)CC4)C[C@H]3C(F)F)N(C2)C1=O` [glecaprevir], in experiment [7], the loss in potency is around 1400 fold.
As to `C=C[C@@H]1C[C@]1(NC(=O)[C@@H]1C[C@@H]2CN1C(=O)[C@H](C(C)(C)C)NC(=O)O[C@@H]1C[C@H]1CCCCCc1nc3ccc(OC)cc3nc1O2)C(=O)NS(=O)(=O)C1CC1` [grazoprevir], the “potency loss in enzyme inhibition assays” value in experiment [4] is given as above 200 fold. Also, the “loss in potency in enzyme inhibition assays” value in experiment [2] was determined as 2500 fold. In addition, the “potency loss in replicon assays” value in experiment [8] was “over 100 fold”. Moreover, the “lower potency in replicon assays” value in experiment [9] is reported as 1923 fold. The “difference in ΔΔG for the double mutant” value in experiment [6] is 1 to 2 kcal/mol.
As for `Cc1cnc(C(=O)N[C@H]2CCCCC/C=C\[C@@H]3C[C@@]3(C(=O)NS(=O)(=O)C3CC3)NC(=O)[C@@H]3C[C@@H](Oc4nc5ccccc5c5ccccc45)CN3C2=O)cn1` [paritaprevir], the “loss in potency in enzyme inhibition assays” value in [2] came out at 8500 fold. The “lower potency in replicon assays” value in experiment [9] is 2941 fold. Besides, in [6], the “difference in ΔΔG for the double mutant” value is 1 to 2 kcal/mol.
